Common to all, as to experiment: stopped-flow CO2 hydrase assay
Format in all cases: biochemical

For one assay, the target named is T1, hCA IV (Homo sapiens, UniProt P22748).
T1 construct: gene CA4; recombinant; membrane-anchored isoform
The text has this: stopped-flow CO2 hydrase assay on hCA IV

In a further assay the target is T2, hCA IX (Homo sapiens, UniProt Q16790).
T2 construct: gene CA9; recombinant; transmembrane isoform
An excerpt:
stopped-flow CO2 hydrase assay on hCA IX

The next assay concerns the target T3, hCA I (Homo sapiens, UniProt P00915).
T3 construct: gene CA1; recombinant; cytosolic isoform
The text has this: stopped-flow CO2 hydrase assay on hCA I

The target of a further assay is T4, hCA II (Homo sapiens, UniProt P00918).
T4 construct: gene CA2; recombinant; cytosolic isoform
The text has this:
stopped-flow CO2 hydrase assay on hCA II

What is called Ki is the dissociation constant of the complex between target and ligand, obtained from inhibition or displacement.

T1 sequence (P22748 19-284): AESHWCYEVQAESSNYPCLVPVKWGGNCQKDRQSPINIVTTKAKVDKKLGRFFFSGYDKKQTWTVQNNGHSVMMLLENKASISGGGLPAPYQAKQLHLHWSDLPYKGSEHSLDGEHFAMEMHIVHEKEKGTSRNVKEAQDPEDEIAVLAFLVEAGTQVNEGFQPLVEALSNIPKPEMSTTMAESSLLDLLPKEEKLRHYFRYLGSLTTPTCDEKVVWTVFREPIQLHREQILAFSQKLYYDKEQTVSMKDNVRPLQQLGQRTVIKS
T3 sequence (P00915 2-261): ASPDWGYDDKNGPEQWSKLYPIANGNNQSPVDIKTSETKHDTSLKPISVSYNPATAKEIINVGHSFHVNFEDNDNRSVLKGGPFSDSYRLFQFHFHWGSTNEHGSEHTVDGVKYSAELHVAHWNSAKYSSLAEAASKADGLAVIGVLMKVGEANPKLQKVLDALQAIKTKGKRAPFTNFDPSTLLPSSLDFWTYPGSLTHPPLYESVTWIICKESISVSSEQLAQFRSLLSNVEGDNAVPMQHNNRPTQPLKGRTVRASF

In the case of `Nc1ccccc1-c1nnc(-c2ccc(S(N)(=O)=O)cc2)o1` [8a, 4-(5-(2-Aminophenyl)-1,3,4-oxadiazol-2-yl)benzenesulfonamide], the Ki at hCA IV came to 7340 nM; on hCA IX, 1890 nM; on hCA I it was 222 nM; on hCA II, 34.1 nM.
As for `Cc1ccc(N)c(-c2nnc(-c3ccc(S(N)(=O)=O)cc3)o2)c1` [8b, 4-(5-(2-Amino-5-methylphenyl)-1,3,4-oxadiazol-2-yl)benzenesulfonamide], the Ki was found to be 5610 nM at hCA IV, 1600 nM on hCA IX, 270 nM on hCA I and 51.5 nM at hCA II.
The matching figures for `COc1ccc(N)c(-c2nnc(-c3ccc(S(N)(=O)=O)cc3)o2)c1` [8c, 4-(5-(2-Amino-5-methoxyphenyl)-1,3,4-oxadiazol-2-yl)benzenesulfonamide]: 5920 nM, 282 nM, 321 nM and 16.4 nM.
Consider `Nc1ccc(F)cc1-c1nnc(-c2ccc(S(N)(=O)=O)cc2)o1` [8d, 4-(5-(2-Amino-5-fluorophenyl)-1,3,4-oxadiazol-2-yl)benzenesulfonamide], for which the Ki turned out to be 6330 nM on hCA IV, 1600 nM at hCA IX, 736 nM at hCA I and 43.7 nM at hCA II.
In the case of `Nc1ccc(Cl)cc1-c1nnc(-c2ccc(S(N)(=O)=O)cc2)o1` [8e, 4-(5-(2-Amino-5-chlorophenyl)-1,3,4-oxadiazol-2-yl)benzenesulfonamide], the Ki at hCA IV was 8240 nM; on hCA IX, 2370 nM; on hCA I, 3500 nM; on hCA II, 221 nM.
In the case of `Nc1ccc(OC(F)(F)F)cc1-c1nnc(-c2ccc(S(N)(=O)=O)cc2)o1` [8f, 4-(5-(2-Amino-5-(trifluoromethoxy)phenyl)-1,3,4-oxadiazol-2-yl)benzenesulfonamide], the Ki at hCA IV is 2170 nM; on hCA IX, 2450 nM; on hCA I, 710 nM; on hCA II, 93.2 nM.
Take `Nc1c(F)cccc1-c1nnc(-c2ccc(S(N)(=O)=O)cc2)o1` [8g, 4-(5-(2-Amino-3-fluorophenyl)-1,3,4-oxadiazol-2-yl)benzenesulfonamide]: the Ki at hCA IV was determined as 2020 nM; on hCA IX, 2270 nM; on hCA I, 81.4 nM; on hCA II it was 6.4 nM.
Turning to `Cc1cc(C)c(N)c(-c2nnc(-c3ccc(S(N)(=O)=O)cc3)o2)c1` [8h, 4-(5-(2-Amino-3,5-dimethylphenyl)-1,3,4-oxadiazol-2-yl)benzenesulfonamide], the Ki on hCA IV was found to be 7590 nM; at hCA IX, 2030 nM; at hCA I, 89.1 nM; at hCA II, 17.6 nM.
With `Nc1c(Cl)cc(Cl)cc1-c1nnc(-c2ccc(S(N)(=O)=O)cc2)o1` [8i, 4-(5-(2-Amino-3,5-dichlorophenyl)-1,3,4-oxadiazol-2-yl)benzenesulfonamide], the Ki at hCA IV was 6780 nM; on hCA IX, 2740 nM; on hCA I, 813 nM; at hCA II it was 46.4 nM.
For `Nc1ccccc1-c1nnc(-c2cccc(S(N)(=O)=O)c2)o1` [8j, 3-(5-(2-Aminophenyl)-1,3,4-oxadiazol-2-yl)benzenesulfonamide] the same measures were 526 nM, 2920 nM, 3310 nM and 46.9 nM.
The matching figures for `Cc1ccc(N)c(-c2nnc(-c3cccc(S(N)(=O)=O)c3)o2)c1` [8k, 3-(5-(2-Amino-5-methylphenyl)-1,3,4-oxadiazol-2-yl)benzenesulfonamide]: 437 nM, 2960 nM, 5830 nM and 64.6 nM.
For `COc1ccc(N)c(-c2nnc(-c3cccc(S(N)(=O)=O)c3)o2)c1` [8l, 3-(5-(2-Amino-5-methoxyphenyl)-1,3,4-oxadiazol-2-yl)benzenesulfonamide] the same measures were 588 nM, 2720 nM, 3510 nM and 516 nM.
On to `Nc1ccc(F)cc1-c1nnc(-c2cccc(S(N)(=O)=O)c2)o1` [8m, 3-(5-(2-Amino-5-fluorophenyl)-1,3,4-oxadiazol-2-yl)benzenesulfonamide], for which the Ki was 548 nM at hCA IV, 2570 nM at hCA IX, 747 nM at hCA I and 307 nM on hCA II.
For `Nc1ccc(OC(F)(F)F)cc1-c1nnc(-c2cccc(S(N)(=O)=O)c2)o1` [8n, 3-(5-(2-Amino-5-(trifluoromethoxy)phenyl)-1,3,4-oxadiazol-2-yl)benzenesulfonamide] the same measures were 9430 nM, 255 nM, 344 nM and 480 nM.
`Nc1c(F)cccc1-c1nnc(-c2cccc(S(N)(=O)=O)c2)o1` [8o, 3-(5-(2-Amino-3-fluorophenyl)-1,3,4-ovxadiazol-2-yl)benzenesulfonamide]: the Ki was determined as 522 nM at hCA IV, 140 nM at hCA IX, 731 nM on hCA I and 86.3 nM at hCA II.

Values taken from paper PMC6010027, “Iodine-mediated one-pot intramolecular decarboxylation domino reaction for accessing functionalised 2-(1,3,4-oxadiazol-2-yl)anilines with carbonic anhydrase inhibitory action” (Journal of Enzyme Inhibition and Medicinal Chemistry, 2018).
